{"source": "patent US20160367578A1", "about": "“METHODS AND COMPOSITIONS FOR ERADICATING LEUKEMIC CELLS” (priority 2013, published 2016)", "key": {"MLL-AF9 leukemic cells": {"tested_on": "MLL-AF9 leukemic cells", "experiment": "Apoptosis of MLL-AF9 leukemic cells (7AAD-negative, annexin-V positive)", "type": "cell-based, mouse", "set-up": "apoptosis of leukemic cells, kinetics: dose or concentration left out as unconfirmed", "experimental": "Rate of proliferation for cell populations used is as follows: MLL-AF9: 3 divisions/24 hours; myeloblasts: 3 divisions/24 hours, eLKS: 7 divisions/24 hours.\nThe informational material can include instructions to administer the gap junction blocker and/or agents described herein in a suitable manner, e.g., in a suitable dose, dosage form, or mode of administration. […] The informational material can include instructions for selecting a suitable subject, e.g., a human, e.g., a human suffering from relapsed or refractory acute myeloid leukemia. The informational material of the kits is not limited in its form. In many cases, the informational material, e.g., instructions, is provided in printed matter, e.g., a printed text, drawing, and/or photograph, e.g., a label or printed sheet. However, the informational material can also be provided in other formats, such as Braille, computer readable material, video recording, or audio recording. In another embodiment, the informational material of the kit is a link or contact information, e.g., a physical address, email address, hyperlink, website, or telephone number, where a user of the kit can obtain substantive information about the modulator and/or its use in the methods described herein. Of course, the informational material can also be provided in any combination of formats."}, "[1]": {"tested_on": "human leukemic cancer stem and progenitor cells (THP1, HL60, U937)", "experiment": "Colony formation assay (CFU-C) on human leukemic cell lines", "type": "cell-based"}, "MLL-AF9 cells [2]": {"tested_on": "MLL-AF9 cells", "experiment": "Viability of MLL-AF9 cells exposed to CBX for 16 hours (7AAD FACS)", "type": "cell-based, mouse", "set-up": "MLL-AF9 cell death: dose or concentration left out as unconfirmed", "experimental": "Cells were distinguished by Cd45.1/CD45.2 expression and cell viability was determined by % of 7AAD-negative cells, in FACS analysis. (*p<0.01).\nWe then asked how blockage of gap junction intercellular communication affects AML cells, without additional treatment. […] In order to exclude the possibility of clone specific effects, we have repeated the experiments with a different MLL-AF9 clone, generated independently, and also included HoxA9/Meis1 AML cells that represent a different type of AML."}, "[3]": {"tested_on": "Mac1 (CD11b, integrin αm) in MLL-AF9 cells", "experiment": "Mac1 expression in CBX treated mice leukemic cells", "type": "cell-based, mouse", "conditions": "7AAD-negative MLL-AF9 cells undergoing apoptosis"}, "[4]": {"tested_on": "Mac1 in human leukemic cell lines U937, HL60 and THP1", "experiment": "Myelo-marker flow cytometry in CBX-treated human leukemic cell lines", "type": "cell-based", "conditions": "human leukemias, CBX 16 h", "excerpt": "FIGS. 34A-34D are bar graphs quantifying myelo-markers CD11b (FIG. 34A), CD14+ (FIG. 34B), CD66b+ (FIG. 34C), and CD66+/CD14+ (FIG. 34D) in CBX-treated primary normal human leukocytes as compared to CBX-treated human leukemic cell lines U937, HL60 and THP1."}, "gap junctions": {"tested_on": "gap junctions", "conditions": "100 μM; cited from earlier work"}, "[5]": {"tested_on": "freshly isolated primary non-leukemic normal human leukocytes", "experiment": "Colony formation assay (CFU-C) on normal human leukocytes", "type": "cell-based"}, "MLL-AF9 leukemia": {"tested_on": "MLL-AF9 leukemia", "experiment": "MLL-AF9 leukemia in non-irradiated mice, intraperitoneal CBX with or w/o chemotherapy (survival, IVIS, flow cytometry)", "type": "in vivo, mouse", "experimental": "Chemo: cytarabine (100 mg/kg) and doxorubicin (3 mg/kg) to the subject for a period of 3 days, followed by administering cytarabine alone (100 mg/kg) to the subject for a period of 2 days.\nLeukemia was induced in mice by intravenously injecting 1 million live MLL-AF9 leukemic cells (expressing GFP and luciferase) into non-irradiated recipients.\nWe first studied the immediate response of AML cells to induction chemotherapy in a mouse model of human MLL-AF9 leukemia. MLL-AF9 is a fusion protein, encoded by the t(9; 11)(p22; q23) translocation (Krivtsov, et al. 2006 and Sykes, et al., Cell 146, 697-708 (2011)), present in leukemic blasts derived from patients with AML and is associated with poor prognosis (Schoch, et al., Blood 102, 2395-402 (2003)). In order to generate primary MLL-AF9 leukemic cells for our experiments, we introduced the MLL-AF9 oncogene via retroviral transduction into lineage depleted bone marrow cells from B6.SJL mice, as depicted in FIG. 1A. Sorted GFP positive cells were then intravenously injected into sub-lethally irradiated C57B16 recipients and MLL-AF9 GFP-positive leukemic cells were harvested 3 months later, at a terminal stage of disease. In order to synchronize the timing of the treatment and to visualize disease progression, we transduced primary MLL-AF9 GFP-positive cells with Luciferase lentivirus. Then, we selected Luciferase expressing cells with antibiotics and transplanted 1 million double positive leukemic cells into non-irradiated recipients and monitored disease progression by whole body bioluminescence imaging (FIGS. 1A and 1B).\n1 week after treatment, mice were imaged and then sacrificed to evaluate treatment outcome."}, "MLL-AF9 cells [6]": {"tested_on": "MLL-AF9 cells", "experiment": "MLL-AF9 viability under chemotherapy with or w/o MS-5 stromal layer, transwell inserts and CBX (7AAD FACS)", "type": "cell-based, mouse", "excerpt": "Viability was detected via GFP expression and 7AAD exclusion.\nTo test this hypothesis, we evaluated the response of MLL-AF9 leukemic cells to chemotherapy in vitro, with and without supporting bone marrow stromal cells using time-lapse video microscopy combined with flow cytometry. […] MS-5 are murine bone-marrow stromal cells that were previously shown to support hematopoietic stem and progenitor cells (Itoh, et al., Experimental Hematology 21, 145-153 (1989) and Schajnovitz, et al., Nature Immunology 12, 391-8 (2011)). […] In order to distinguish between Stromal-leukemic (heterotypic) interactions and leukemic-leukemic (homotypic) interactions, we separated the MLL-AF9 from the stroma by transwell inserts, to restrict heterotypic interactions while allowing homotypic interactions.\nSince adhesion interactions of hematopoietic cells are commonly accompanied with intercellular communication, we then tested the potential role of gap junctions activity in drug resistance. Gap junction intercellular channels, which are homo- and hetero-hexamers of connexin proteins, facilitate intercellular communication between contacting cells via the passage of secondary messengers, such as calcium and cAMP^17."}, "human AML cell line U937": {"tested_on": "human AML cell line U937", "experiment": "Neutrophil differentiation (CD66b+/CD14-) by FACS in U937", "type": "cell-based", "conditions": "U937, 16 hours"}}}
{"molecule": "CC1(C)[C@@H](OC(=O)CCC(=O)O)CC[C@]2(C)[C@H]3C(=O)C=C4[C@@H]5C[C@@](C)(C(=O)O)CC[C@]5(C)CC[C@@]4(C)[C@]3(C)CC[C@@H]12", "note": "[CBX, Carbenoxolone]", "values": [{"measurement": "apoptosis of MLL-AF9 leukemic cells", "setting": "MLL-AF9 leukemic cells; 6, 12 and 20 hours", "result": "rapidly induces apoptosis"}, {"measurement": "cell cycle dependence of CBX-induced leukemia apoptosis", "setting": "MLL-AF9 leukemic cells; 4 h, 1:1 mixture with highly proliferating normal myeloblasts or expanded LKS cells", "result": "not cell cycle dependent"}, {"measurement": "apoptosis of leukemic cells in 1:1 mixture with BM-MNC", "setting": "MLL-AF9 leukemic cells; CBX vs PBS control, 4h", "result": "induces apoptosis of leukemic cells"}, {"measurement": "apoptosis of leukemic cells, kinetics", "setting": "MLL-AF9 leukemic cells; exposure of about […] μM", "result": "selective apoptosis within hours"}, {"measurement": "effect on human leukemic progenitors (CFU-C)", "setting": "[1]; CBX 100 μM", "result": "eradicates human leukemic progenitors"}, {"measurement": "effect on human leukemic cancer stem and progenitor cells (CFU-C)", "setting": "[1]; increasing concentrations", "result": "eradicates human leukemic cancer stem and progenitor cells"}, {"measurement": "cells eradicated", "setting": "MLL-AF9 cells [2]; 1001 μM CBX for 16 hours, CBX alone", "result": "~20", "unit": "%"}, {"measurement": "eradication of MLL-AF9 leukemia", "setting": "MLL-AF9 cells [2]; CBX at greater than or equal to 100 μM, 16 hours", "result": "eradication of MLL-AF9 leukemia"}, {"measurement": "MLL-AF9 cell death", "setting": "MLL-AF9 cells [2]; CBX, 16 hours", "result": "~70", "unit": "%"}, {"measurement": "eradication of MLL-AF9 cells in 1:1 mixture with normal BM leukocytes", "setting": "MLL-AF9 cells [2]; increasing CBX up to 400 μM, 16 hours", "result": "selectively eradicates"}, {"measurement": "Mac1 (CD11b) expression", "setting": "[3]", "result": "downregulated"}, {"measurement": "Mac1 expression", "setting": "[4]", "result": "downregulated"}, {"measurement": "block of cell-cell communication", "setting": "gap junctions", "result": "efficiently blocks cell-cell communication"}, {"measurement": "cell viability", "setting": "gap junctions", "result": "without affecting cell viability"}, {"measurement": "effect on normal progenitors (CFU-C)", "setting": "[5]; CBX 100 μM", "result": "induces proliferation of normal progenitors"}, {"measurement": "effect on normal human stem and progenitor cells (CFU-C)", "setting": "[5]; increasing concentrations", "result": "inducing proliferation of normal human stem and progenitor cells"}, {"measurement": "leukemia status 1 week after treatment (luciferase imaging, flow cytometry)", "setting": "MLL-AF9 leukemia; 25 mg/kg CBX 24 hours before and throughout 5-days induction chemotherapy", "result": "entirely leukemia free"}, {"measurement": "survival", "setting": "MLL-AF9 leukemia; Carbenoxolone 20 mg/kg in combination with chemotherapy, from Day 27", "result": "prolonged survival"}, {"measurement": "survival", "setting": "MLL-AF9 leukemia; Carbenoxolone alone, 20 mg/kg 3 or 6 days from Day 27, or 10/20/30 mg/kg ascending from Day 68", "result": "prolonged survival"}, {"measurement": "survival", "setting": "MLL-AF9 leukemia; IP, 20 mg/kg for 6 days from day 27 (with chemo arm) or 10/20/30 mg/kg ascending from day 68", "result": "prolonged survival"}, {"measurement": "survival", "setting": "MLL-AF9 leukemia; IP, 50 mg/kg 6 days beginning at day 27", "result": "prolonged survival"}, {"measurement": "stroma-mediated drug resistance", "setting": "MLL-AF9 cells [6]; 25 nM cytarabine and 10 nM doxorubicin as chemo, 16 hours", "result": "overcomes stroma-mediated drug resistance"}, {"measurement": "eradication", "setting": "MLL-AF9 cells [6]; co-cultures separated with transwell inserts, CBX + chemotherapy", "result": "more than 90%"}, {"measurement": "MLL-AF9 cells eradicated", "setting": "MLL-AF9 cells [6]; coculture with MS-5, 100 μM CBX 20 minutes before induction chemotherapy", "result": "~90", "unit": "%"}, {"measurement": "neutrophil differentiation (CD66b+/CD14−)", "setting": "human AML cell line U937", "result": "induces rapid (within 16 hours) neutrophil differentiation"}]}
